Structures are written as SMILES. Positions count from the first letter of the chain named.

In assay [1] the target is T1, NasF5053 (NascF5053) (Streptomyces sp. NRRL F-5053, UniProt A0A8I3B027).
T1 construct: codon-optimised gene in pET28a, E. coli BL21(DE3); heme protein
Briefly: UV-Vis difference spectra, Soret shift, hyperbolic fit. The conditions noted are these: read-out: binding constant.

A further assay concerns the target T2, NasbB (Streptomyces sp., UniProt A0A7T3QX21).
T2 construct: codon-optimised gene in pMS1, Mycobacterium smegmatis mc2 155
T2 sequence (A0A7T3QX21 1-422): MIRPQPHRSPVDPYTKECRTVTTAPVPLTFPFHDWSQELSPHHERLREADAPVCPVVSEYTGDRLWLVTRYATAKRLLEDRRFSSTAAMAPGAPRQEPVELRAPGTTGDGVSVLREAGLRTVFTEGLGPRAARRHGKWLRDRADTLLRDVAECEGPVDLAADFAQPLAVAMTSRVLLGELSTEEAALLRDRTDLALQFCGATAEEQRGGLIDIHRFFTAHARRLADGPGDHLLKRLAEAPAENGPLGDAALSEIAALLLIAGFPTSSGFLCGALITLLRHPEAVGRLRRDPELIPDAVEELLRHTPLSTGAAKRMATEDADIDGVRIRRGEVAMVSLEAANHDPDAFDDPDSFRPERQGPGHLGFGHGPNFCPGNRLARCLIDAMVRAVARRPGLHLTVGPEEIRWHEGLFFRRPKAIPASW
It is filed as biochemical. The conditions noted are these: […] substrate, […] P450, spinach Fd/FdR, NADPH recycling, pH […] °C, […] h; product NAS-B.

Another assay addresses T3, NasS1868 (Streptomyces sp. NRRL S-1868, UniProt A0ACD6BAV5).
T3 construct: codon-optimised gene in pMS1, Mycobacterium smegmatis mc2 155
Put plainly: product formation by UHPLC-MS. It is filed as biochemical. The conditions noted are these: 1 mM substrate, 0.1 µM P450, spinach Fd/FdR, NADPH recycling, pH 7.5, 4 °C, 24 h; product aspergilazine A.

The target in assay [2] is T4, NasF5053 (NascF5053) (Streptomyces sp. NRRL F-5053, UniProt A0A8I3B027, A86G/Q65I).
T4 construct: codon-optimised gene in pET28a, E. coli BL21(DE3); heme protein
T4 sequence (A0A8I3B027 1-398 Q65I/A86G): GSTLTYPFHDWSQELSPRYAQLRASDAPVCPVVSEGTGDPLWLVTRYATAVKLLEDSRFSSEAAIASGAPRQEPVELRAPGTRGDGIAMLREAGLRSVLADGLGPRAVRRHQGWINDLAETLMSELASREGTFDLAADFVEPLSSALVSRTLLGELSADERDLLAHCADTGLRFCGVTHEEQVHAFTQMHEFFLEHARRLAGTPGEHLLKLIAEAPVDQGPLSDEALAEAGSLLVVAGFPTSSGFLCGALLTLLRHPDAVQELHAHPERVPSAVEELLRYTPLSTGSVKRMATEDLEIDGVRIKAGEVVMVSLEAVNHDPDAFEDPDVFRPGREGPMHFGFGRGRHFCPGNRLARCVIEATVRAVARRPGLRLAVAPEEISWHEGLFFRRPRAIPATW
Put plainly: UV-Vis difference spectra, Soret shift, hyperbolic fit. The conditions noted are these: read-out: binding constant.

In assay [3] the target is T5, NasF5053 (NascF5053) (Streptomyces sp. NRRL F-5053, UniProt A0A8I3B027, S284A/V288A).
T5 construct: codon-optimised gene in pET28a, E. coli BL21(DE3); heme protein
T5 sequence (A0A8I3B027 1-398 S284A/V288A): T4 sequence (A0A8I3B027 1-398 Q65I/A86G) with I65Q, G86A, S284A, V288A
The description is as above. The conditions noted are these: read-out: binding constant.

T3 sequence (A0ACD6BAV5 1-401): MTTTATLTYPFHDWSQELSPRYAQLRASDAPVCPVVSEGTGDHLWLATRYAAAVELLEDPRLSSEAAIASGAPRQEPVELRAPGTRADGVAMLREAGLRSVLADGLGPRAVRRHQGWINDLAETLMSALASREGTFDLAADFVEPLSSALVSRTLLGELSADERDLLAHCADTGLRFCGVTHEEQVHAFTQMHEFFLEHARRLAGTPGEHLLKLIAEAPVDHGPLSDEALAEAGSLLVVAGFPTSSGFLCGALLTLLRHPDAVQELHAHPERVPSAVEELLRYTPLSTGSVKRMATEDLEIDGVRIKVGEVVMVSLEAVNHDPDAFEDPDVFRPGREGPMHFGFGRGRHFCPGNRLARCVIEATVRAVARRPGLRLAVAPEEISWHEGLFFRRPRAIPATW
T1 sequence (A0A8I3B027 entry or part of it): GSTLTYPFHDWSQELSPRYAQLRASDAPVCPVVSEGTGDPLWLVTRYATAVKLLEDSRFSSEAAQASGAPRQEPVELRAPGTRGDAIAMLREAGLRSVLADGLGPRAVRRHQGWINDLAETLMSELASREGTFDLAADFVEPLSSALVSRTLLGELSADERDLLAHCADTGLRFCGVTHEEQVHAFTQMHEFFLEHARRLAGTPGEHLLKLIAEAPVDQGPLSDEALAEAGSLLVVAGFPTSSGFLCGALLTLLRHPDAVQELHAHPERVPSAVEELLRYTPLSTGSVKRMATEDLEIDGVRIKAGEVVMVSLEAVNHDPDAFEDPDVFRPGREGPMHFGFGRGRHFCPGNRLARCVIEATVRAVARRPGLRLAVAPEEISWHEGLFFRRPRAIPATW

Consider `O=C1N[C@@H](Cc2c[nH]c3ccccc23)C(=O)N2CCC[C@@H]12` [cWL-PL], for which the Kd on NasF5053 (NascF5053) [1] amounted to 11.6 ± 2.1 µM; on NasF5053 (NascF5053) [2], 25.6 ± 1 µM; on NasF5053 (NascF5053) [3] it was 4.81 ± 0.26 µM. Also, the “product formation by UHPLC-MS” value at NasbB was “NasbB was confirmed to efficiently dimerize the cWL-PL into NAS-B”; on NasS1868, “NasS1868 can convert cWL-PL into Asp-A”.

These data come from PMC7721796, “Molecular basis of regio- and stereo-specificity in biosynthesis of bacterial heterodimeric diketopiperazines” (Nature Communications, 2020).
